The test system of one assay is Zymoseptoria tritici. Put plainly: Leaf blotch of wheat (SEPTTR) disease control on wheat seedlings. The assay is classed as in vivo. Also noted: key to SEPTTR 1DP, HV activity at 100 ppm (% control rating) / SEPTTR 3DC, HV activity at 100 ppm (% control rating) / SEPTTR disease control, 1DP / SEPTTR disease control, 3DC / SEPTTR 1DP disease control rating, HV activity / SEPTTR 3DC disease control rating, HV activity / SEPTTR 3DC, LV activity at 125.1 g/H (% Control rating) / SEPTTR 1DP, LV activity at 125.1 g/H (% Control rating) / SEPTTR 1DP disease control rating, LV activity at 125.1 g/H / SEPTTR 3DC disease control rating, LV activity at 125.1 g/H / SEPTTR 3DC disease control rating, HV activity at 100 ppm / SEPTTR 1DP disease control rating, HV activity at 100 ppm / HV activity at 100 ppm SEPTTR 3DC (disease control rating) / HV activity at 100 ppm SEPTTR 1DP (disease control rating) / LV activity at 125.1 g/H SEPTTR 1DP (disease control rating) / LV activity at 125.1 g/H SEPTTR 3DC (disease control rating): A: > 80; B: ≤ 80; C: Not Tested; D: No Activity Observed in the Reported Assay. The note with it: for SEPTTR 1DP disease control rating, HV activity / SEPTTR 3DC disease control rating, HV activity: HV application at 100 ppm. The method, then:
(§1) All fungicides were evaluated using the aforementioned method for their activity vs. all target diseases, unless stated otherwise. Wheat leaf blotch and brown rust activity were also evaluated using track spray applications, in which case the fungicides were formulated as EC formulations, containing 0.1% Trycol 5941 in the spray solutions. Wheat plants (variety Yuma) were grown from seed in a greenhouse in 50% mineral soil/50% soil-less Metro mix until the first leaf was fully emerged, with 7-10 seedlings per pot. These plants were inoculated with an aqueous spore suspension of Zymoseptoria tritici either prior to or after fungicide treatments. After inoculation the plants were kept in 100% relative humidity (one day in a dark dew chamber followed by two to three days in a lighted dew chamber at 20° C.) to permit spores to germinate and infect the leaf. The plants were then transferred to a greenhouse set at 20° C. for disease to develop. When disease symptoms were fully expressed on the 1st leaves of untreated plants, infection levels were assessed on a scale of 0 to 100 percent disease severity. Percent disease control was calculated using the ratio of disease severity on treated plants relative to untreated plants.

For the next assay, the system named is Puccinia triticina. Put plainly: Wheat brown rust (PUCCRT) disease control on wheat seedlings. The note with it: for PUCCRT 1DP disease control rating, HV activity / PUCCRT 3DC disease control rating, HV activity: HV application at 100 ppm. The assay is classed as in vivo. Also noted: key to PUCCRT 3DC, HV activity at 100 ppm (% control rating) / PUCCRT disease control, 3DC / PUCCRT 1DP disease control rating, HV activity / PUCCRT 3DC disease control rating, HV activity / PUCCRT 3DC, LV activity at 125.1 g/H (% Control rating) / PUCCRT 1DP, LV activity at 125.1 g/H (% Control rating) / PUCCRT 3DC disease control rating, LV activity at 125.1 g/H / PUCCRT 1DP disease control rating, LV activity at 125.1 g/H / PUCCRT 3DC disease control rating, HV activity at 100 ppm / PUCCRT 1DP disease control rating, HV activity at 100 ppm / HV activity at 100 ppm PUCCRT 3DC (disease control rating) / LV activity at 125.1 g/H PUCCRT 1DP (disease control rating) / LV activity at 125.1 g/H PUCCRT 3DC (disease control rating): A: > 80; B: ≤ 80; C: Not Tested; D: No Activity Observed in the Reported Assay. Here is the method: as §1, with “plants. Example B: Evaluation of Fungicidal Activity: Wheat Brown Rust (Puccinia triticina; Synonym: Puccinia recondita f. sp. Tritici; Bayer Code PUCCRT) Wheat plants (variety Yuma) were grown from seed in a greenhouse in 50% mineral soil/50% soil-less Metro mix until the first leaf was fully emerged, with 7-10 seedlings per pot. These plants were inoculated with an aqueous spore suspension of Puccinia triticina either prior to or after fungicide treatments. […] The plants were then transferred to a greenhouse set at 24° C. for disease to develop. Fungicide formulation, application and disease assessment followed the procedures as described in the Example A.” for “plants.”

[1] abbreviates: low volume application, 125.1 g/H, 1 Day Protectant.
Setting [2] is: low volume application, 125.1 g/H, 3 Day Curative.
The mark [3] stands for this setting: low volume application, 125.1 g/H, 1 day protectant.
[4] abbreviates: low volume application, 125.1 g/H, 3 day curative.
[5] abbreviates: 1 Day Protectant, wheat leaf blotch.
[6] abbreviates: 3 Day Curative, wheat leaf blotch.
Setting [7] is: 1 Day Protectant, wheat brown rust.
The mark [8] stands for this setting: 3 Day Curative, wheat brown rust.

Regarding `COCCC(=O)Oc1c(OC)ccnc1C(=O)NC(C)C(=O)OC(C)C(CC(C)C)Oc1ccccc1` (centres unmarked) [Cmpd 1100], the “LV activity at 125.1 g/H SEPTTR 1DP (disease control rating)” value in the assay with Zymoseptoria tritici (low volume application, 125.1 g/H, 1 Day Protectant, wheat leaf blotch) is given as “A (> 80)”. Also, the “LV activity at 125.1 g/H SEPTTR 3DC (disease control rating)” value in the assay with Zymoseptoria tritici (low volume application, 125.1 g/H, 3 Day Curative, wheat leaf blotch) was “A (> 80)”. Moreover, in the assay on Puccinia triticina (low volume application, 125.1 g/H, 1 Day Protectant, wheat brown rust), the “LV activity at 125.1 g/H PUCCRT 1DP (disease control rating)” value is on record as “A (> 80)”. The “LV activity at 125.1 g/H PUCCRT 3DC (disease control rating)” value in the assay on Puccinia triticina (low volume application, 125.1 g/H, 3 Day Curative, wheat brown rust) is reported as “A (> 80)”.
As to `COc1ccnc(C(=O)N[C@@H](C)C(=O)O[C@@H](C)[C@H](Oc2ccc(Cl)cc2)c2ccccc2)c1OCOC(C)=O` [Cmpd 636], the “SEPTTR 1DP, LV activity at 125.1 g/H (% Control rating)” value in the assay on Zymoseptoria tritici (setting [1]) is reported as “A (> 80)”. The “SEPTTR 3DC, LV activity at 125.1 g/H (% Control rating)” value in the assay with Zymoseptoria tritici (setting [2]) is “A (> 80)”. Besides, in the assay on Puccinia triticina (setting [1]), the “PUCCRT 1DP, LV activity at 125.1 g/H (% Control rating)” value is listed as “A (> 80)”. Moreover, the “PUCCRT 3DC, LV activity at 125.1 g/H (% Control rating)” value in the assay with Puccinia triticina (setting [2]) is recorded as “A (> 80)”.
With `CCC(CC)[C@H](Oc1cc(F)ccc1F)[C@H](C)OC(=O)[C@H](C)NC(=O)c1nccc(OC)c1OCOC(C)=O` [Cmpd 671], the “SEPTTR 1DP disease control rating, LV activity at 125.1 g/H” value with Zymoseptoria tritici (setting [3]) is listed as “D”. The “SEPTTR 3DC disease control rating, LV activity at 125.1 g/H” value in the assay on Zymoseptoria tritici (setting [4]) was “B (≤ 80)”. Besides, the “PUCCRT 1DP disease control rating, LV activity at 125.1 g/H” value in the assay with Puccinia triticina (setting [3]) was “A (> 80)”. The “PUCCRT 3DC disease control rating, LV activity at 125.1 g/H” value in the assay on Puccinia triticina (setting [4]) is reported as “A (> 80)”.
Regarding `COc1ccnc(C(=O)N[C@@H](C)C(=O)O[C@@H](C)[C@H](Oc2ccc(Cl)cc2Cl)C(C)C)c1O` [Cmpd 358], the “SEPTTR 1DP disease control rating, HV activity” value in the assay on Zymoseptoria tritici (setting [5]) is recorded as “B (≤ 80)”. In addition, the “SEPTTR 3DC disease control rating, HV activity” value in the assay with Zymoseptoria tritici (setting [6]) is listed as “B (≤ 80)”. Further, the “PUCCRT 1DP disease control rating, HV activity” value in the assay on Puccinia triticina (setting [7]) is “B (≤ 80)”. Further, in the assay on Puccinia triticina (setting [8]), the “PUCCRT 3DC disease control rating, HV activity” value is “B (≤ 80)”.
With `CCCO[C@@H](C1CC1)[C@@H](Oc1ccccc1)[C@H](C)OC(=O)[C@H](C)NC(=O)c1nccc(OC)c1OCOC(C)=O` [Cmpd 505], the “SEPTTR 1DP, LV activity at 125.1 g/H (% Control rating)” value with Zymoseptoria tritici (setting [1]) is “B (≤ 80)”. Moreover, in the assay on Zymoseptoria tritici (setting [2]), the “SEPTTR 3DC, LV activity at 125.1 g/H (% Control rating)” value is “B (≤ 80)”. The “PUCCRT 1DP, LV activity at 125.1 g/H (% Control rating)” value with Puccinia triticina (setting [1]) was “A (> 80)”. The “PUCCRT 3DC, LV activity at 125.1 g/H (% Control rating)” value in the assay with Puccinia triticina (setting [2]) is “A (> 80)”.
Regarding `COc1ccnc(C(=O)N[C@@H](C)C(=O)O[C@@H](C)[C@@H](Cc2ccccc2)OCC(C)C)c1O` [Cmpd 343], in the assay on Zymoseptoria tritici (setting [5]), the “SEPTTR 1DP disease control rating, HV activity” value is “A (> 80)”. The “SEPTTR 3DC disease control rating, HV activity” value in the assay on Zymoseptoria tritici (setting [6]) was “B (≤ 80)”. In addition, the “PUCCRT 1DP disease control rating, HV activity” value in the assay with Puccinia triticina (setting [7]) is “A (> 80)”. Besides, in the assay on Puccinia triticina (setting [8]), the “PUCCRT 3DC disease control rating, HV activity” value is given as “A (> 80)”.
With `CCC(C)C(NC(=O)c1nccc(OC)c1O)C(=O)OC(C)C(Oc1cc(F)ccc1F)C(C)C` (centres unmarked) [Cmpd 395], the “SEPTTR 1DP disease control rating, HV activity” value in the assay with Zymoseptoria tritici (setting [5]) is “B (≤ 80)”. The “SEPTTR 3DC disease control rating, HV activity” value in the assay on Zymoseptoria tritici (setting [6]) is “B (≤ 80)”. The “PUCCRT 1DP disease control rating, HV activity” value with Puccinia triticina (setting [7]) is given as “B (≤ 80)”. Also, in the assay on Puccinia triticina (setting [8]), the “PUCCRT 3DC disease control rating, HV activity” value is listed as “D”.
Consider `CC[C@H](Cc1ccccc1)[C@@H](Oc1ccccc1)[C@H](C)OC(=O)[C@H](C)NC(=O)c1nccc(OC)c1O` [Cmpd 311], for which the “SEPTTR 1DP disease control rating, HV activity” value in the assay with Zymoseptoria tritici (setting [5]) is “A (> 80)”. The “SEPTTR 3DC disease control rating, HV activity” value in the assay on Zymoseptoria tritici (setting [6]) is recorded as “B (≤ 80)”. For the same molecule, in the assay with Puccinia triticina (setting [7]), the “PUCCRT 1DP disease control rating, HV activity” value is given as “A (> 80)”. For the same molecule, in the assay with Puccinia triticina (setting [8]), the “PUCCRT 3DC disease control rating, HV activity” value was “A (> 80)”.

The values are drawn from patent publication US20180000085A1, “USE OF PICOLINAMIDE COMPOUNDS WITH FUNGICIDAL ACTIVITY” (DOW AGROSCIENCES LLC, priority 2014, published 2018).
